Structures can show the parent of a compound that is named as a salt. Where two headings read alike, the source gives them in different places.
Biological target: T1, human mGluR2 (Homo sapiens, UniProt Q14416)
T1 construct: expressed in transfected cells; host or cells: HEK293 clonal line
Experiment: mGluR2 cAMP assay
Format: cell-based
Conditions: clonally expressed human mGluR2 in HEK293, 1 μM forskolin, 1 μM LY-341495, 30 min, CISBIO cAMP kit
Method: On the day of the assay, media was removed, cells washed with PBS, cells harvested and pelleted by centrifugation. Cell pellets were resuspended in stimulation buffer without forskolin and counted. […] A standard curve was created using a top concentration of cAMP of 1 μM in the stimulation buffer, 1:3 dilutions over 14 points in the absence of cells. […] In house software converted the fluorescence value ratios to units of cAMP concentration, which is then used to calculate % inhibition for each test compound. MGluR2 cAMP Assay Materials and Methods. […] Buffer without forskolin was used as a negative control. Solutions of D2 and cryptate detection reagents from the CISBIO dynamic cAMP kit (62AM4PEJ) were diluted 1:40 in lysis buffer. Lysis buffer consisted of 50 mM Phosphate Buffer pH 7.0, 800 mM Potassium Fluoride, 0.2% BSA, and 1.0% Triton. Assay reaction was terminated by addition of detection reagents in lysis buffer. One hour later, plates were read on a PE Viewlux. Data was extracted, and concentration response curves generated by fitting the data to a standard 4 parameter logistic equation from which EC50 values were determined.

[1] = read-out: EC50 (nM), activity in mGluR2 cAMP assay

T1 sequence (Q14416 19-872): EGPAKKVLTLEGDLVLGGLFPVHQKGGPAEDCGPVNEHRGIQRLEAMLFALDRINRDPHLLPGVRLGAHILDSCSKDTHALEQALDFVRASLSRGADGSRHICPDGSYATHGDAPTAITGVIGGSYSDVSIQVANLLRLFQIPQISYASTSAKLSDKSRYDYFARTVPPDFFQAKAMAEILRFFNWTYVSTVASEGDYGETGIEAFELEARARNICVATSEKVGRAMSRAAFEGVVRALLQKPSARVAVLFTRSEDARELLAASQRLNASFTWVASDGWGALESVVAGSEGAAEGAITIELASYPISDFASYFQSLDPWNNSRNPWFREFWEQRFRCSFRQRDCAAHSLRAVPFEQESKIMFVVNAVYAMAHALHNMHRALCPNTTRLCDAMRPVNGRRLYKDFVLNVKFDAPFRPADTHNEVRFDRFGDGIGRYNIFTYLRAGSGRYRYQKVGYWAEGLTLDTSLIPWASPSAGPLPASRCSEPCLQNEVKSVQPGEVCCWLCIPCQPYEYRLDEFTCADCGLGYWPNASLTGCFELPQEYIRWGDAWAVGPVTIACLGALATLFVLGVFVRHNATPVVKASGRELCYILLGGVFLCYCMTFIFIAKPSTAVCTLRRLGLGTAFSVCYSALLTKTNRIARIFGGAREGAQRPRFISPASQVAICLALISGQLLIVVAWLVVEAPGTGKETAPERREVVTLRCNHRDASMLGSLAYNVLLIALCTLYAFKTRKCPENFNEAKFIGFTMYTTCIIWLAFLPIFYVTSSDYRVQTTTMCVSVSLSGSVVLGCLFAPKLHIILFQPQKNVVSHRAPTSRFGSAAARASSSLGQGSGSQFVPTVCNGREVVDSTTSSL

N#C[C@]1(c2cc(F)cc(F)c2)C[C@H](Oc2ccn3c(CC4CC4)nnc3c2C(F)(F)F)C1 [Example 54, (1s,3s)-3-(3-(Cyclopropylmethyl)-8-(trifluoromethyl)-[1,2,4]triazolo[4,3-a]pyridin-7-yloxy)-1-(3,5-difluorophenyl)cyclobutanecarbonitrile]
EC50 [1]: 2.2 nM

Fc1cc(F)cc(C2(COc3ccn4c(CC5CC5)nnc4c3C(F)(F)F)CC2)c1 [Example 55, 3-(Cyclopropylmethyl)-7-((1-(3,5-difluorophenyl)cyclopropyl)methoxy)-8-(trifluoromethyl)-[1,2,4]triazolo[4,3-a]pyridine]
EC50 [1]: 20 nM

FC(F)(F)c1c(OCC2(c3cc(Cl)cc(Cl)c3)CC2)ccn2c(CC3CC3)nnc12 [Example 56, 3-(Cyclopropylmethyl)-7-((1-(3,5-dichlorophenyl)cyclopropyl)methoxy)-8-(trifluoromethyl)-[1,2,4]triazolo[4,3-a]pyridine]
EC50 [1]: 22 nM

FC(F)(F)c1c(O[C@H]2C[C@H](c3ccccc3)C2)ccn2c(CC3CC3)nnc12 [Example 57, 3-(Cyclopropylmethyl)-7-((1r,3r)-3-phenylcyclobutoxy)-8-(trifluoromethyl)-[1,2,4]triazolo[4,3-a]pyridine]
EC50 [1]: 0.5 nM

Clc1ccc(COc2ccn3c(CC4CC4)nnc3c2Cl)cc1 [Example 58, 8-Chloro-7-(4-chlorobenzyloxy)-3-(cyclopropylmethyl)-[1,2,4]triazolo[4,3-a]pyridine, TFA salt]
EC50 [1]: 60 nM

CC(Oc1ccn2c(CC3CC3)nnc2c1Cl)c1ccc(F)cc1 (stereo not shown) [Example 59, 8-Chloro-3-(cyclopropylmethyl)-7-(1-(4-fluorophenyl)ethoxy)-[1,2,4]triazolo[4,3-a]pyridine]
EC50 [1]: 530 nM

Clc1cccc(COc2ccn3c(CC4CC4)nnc3c2Cl)c1 [Example 60, 8-Chloro-7-(3-chlorobenzyloxy)-3-(cyclopropylmethyl)-[1,2,4]triazolo[4,3-a]pyridine]
EC50 [1]: 18 nM

COc1cccc(COc2ccn3c(CC4CC4)nnc3c2Cl)c1 [Example 61, 8-Chloro-3-(cyclopropylmethyl)-7-(3-methoxybenzyloxy)-[1,2,4]triazolo[4,3-a]pyridine]
EC50 [1]: 40 nM

Clc1c(OCCCc2cccnc2)ccn2c(CC3CC3)nnc12 [Example 62, 8-Chloro-3-(cyclopropylmethyl)-7-(3-(pyridin-3-yl)propoxy)-[1,2,4]triazolo[4,3-a]pyridine]
EC50 [1]: 270 nM

Clc1c(OCCOc2ccccc2)ccn2c(CC3CC3)nnc12 [Example 63, 8-Chloro-3-(cyclopropylmethyl)-7-(2-phenoxyethoxy)-[1,2,4]triazolo[4,3-a]pyridine]
EC50 [1]: 100 nM

Clc1c(OCCc2ccccc2)ccn2c(CC3CC3)nnc12 [Example 64, 8-Chloro-3-(cyclopropylmethyl)-7-phenethoxy-[1,2,4]triazolo[4,3-a]pyridine]
EC50 [1]: 32 nM

COc1cc(COc2ccn3c(CC4CC4)nnc3c2Cl)ccc1F [Example 65, 8-Chloro-3-(cyclopropylmethyl)-7-(4-fluoro-3-methoxybenzyloxy)-[1,2,4]triazolo[4,3-a]pyridine]
EC50 [1]: 110 nM

Clc1ccccc1COc1ccn2c(CC3CC3)nnc2c1Cl [Example 66, 8-Chloro-7-(2-chlorobenzyloxy)-3-(cyclopropylmethyl)-[1,2,4]triazolo[4,3-a]pyridine]
EC50 [1]: 11 nM

Cc1cccc(COc2ccn3c(CC4CC4)nnc3c2Cl)c1 [Example 67, 8-Chloro-3-(cyclopropylmethyl)-7-(3-methylbenzyloxy)-[1,2,4]triazolo[4,3-a]pyridine]
EC50 [1]: 55 nM

Fc1ccccc1COc1ccn2c(CC3CC3)nnc2c1Cl [Example 68, 8-Chloro-3-(cyclopropylmethyl)-7-(2-fluorobenzyloxy)-[1,2,4]triazolo[4,3-a]pyridine]
EC50 [1]: 68 nM

Clc1ccc(COc2ccn3c(CC4CC4)nnc3c2Cl)cc1Cl [Example 69, 8-Chloro-3-(cyclopropylmethyl)-7-(3,4-dichlorobenzyloxy)-[1,2,4]triazolo[4,3-a]pyridine]
EC50 [1]: 32 nM

COc1ccc(COc2ccn3c(CC4CC4)nnc3c2Cl)cc1 [Example 70, 8-Chloro-3-(cyclopropylmethyl)-7-(4-methoxybenzyloxy)-[1,2,4]triazolo[4,3-a]pyridine]
EC50 [1]: 140 nM

Fc1cccc(F)c1COc1ccn2c(CC3CC3)nnc2c1Cl [Example 71, 8-Chloro-3-(cyclopropylmethyl)-7-(2,6-difluorobenzyloxy)-[1,2,4]triazolo[4,3-a]pyridine]
EC50 [1]: 11 nM

COc1cccc(F)c1COc1ccn2c(CC3CC3)nnc2c1Cl [Example 72, 8-Chloro-3-(cyclopropylmethyl)-7-(2-fluoro-6-methoxybenzyloxy)-[1,2,4]triazolo[4,3-a]pyridine]
EC50 [1]: 42 nM

FC(F)(F)Oc1ccc(Cl)cc1COc1ccn2c(CC3CC3)nnc2c1Cl [Example 73, 8-Chloro-7-(5-chloro-2-(trifluoromethoxy)benzyloxy)-3-(cyclopropylmethyl)-[1,2,4]triazolo[4,3-a]pyridine]
EC50 [1]: 22 nM

COc1ccc(F)cc1COc1ccn2c(CC3CC3)nnc2c1Cl [Example 74, 8-Chloro-3-(cyclopropylmethyl)-7-(5-fluoro-2-methoxybenzyloxy)-[1,2,4]triazolo[4,3-a]pyridine]
EC50 [1]: 21 nM

Clc1c(OCc2cccc(OC3CC3)c2)ccn2c(CC3CC3)nnc12 [Example 75, 8-Chloro-7-(3-cyclopropoxybenzyloxy)-3-(cyclopropylmethyl)-[1,2,4]triazolo[4,3-a]pyridine]
EC50 [1]: 29 nM

Fc1cc(F)cc(COc2ccn3c(CC4CC4)nnc3c2Cl)c1 [Example 76, 8-Chloro-3-(cyclopropylmethyl)-7-(3,5-difluorobenzyloxy)-[1,2,4]triazolo[4,3-a]pyridine]
EC50 [1]: 4.1 nM

Fc1cccc(Cl)c1CCOc1ccn2c(CC3CC3)nnc2c1C(F)(F)F [Example 80, 7-(2-Chloro-6-fluorophenethoxy)-3-(cyclopropylmethyl)-8-(trifluoromethyl)-[1,2,4]triazolo[4,3-a]pyridine]
EC50 [1]: 0.4 nM

Fc1cccc(F)c1CCOc1ccn2c(CC3CC3)nnc2c1C(F)(F)F [Example 81, 3-(Cyclopropylmethyl)-7-(2,6-difluorophenethoxy)-8-(trifluoromethyl)-[1,2,4]triazolo[4,3-a]pyridine]
EC50 [1]: 1.5 nM

Clc1cc(COc2ccn3c(CC4CC4)nnc3c2Cl)nc(Cl)n1 [Example 82, 8-Chloro-3-(cyclopropylmethyl)-7-((2,6-dichloropyrimidin-4-yl)methoxy)-[1,2,4]triazolo[4,3-a]pyridine]
EC50 [1]: 20 nM

FC(F)(F)c1c(OCC(F)(F)c2ccccc2)ccn2c(CC3CC3)nnc12 [Example 83, 3-(Cyclopropylmethyl)-7-(2,2-difluoro-2-phenylethoxy)-8-(trifluoromethyl)-[1,2,4]triazolo[4,3-a]pyridine]
EC50 [1]: 6.1 nM

COC1(c2ccc(F)cc2)CCC(Oc2ccn3c([C@H]4C[C@@H]4F)nnc3c2C(F)(F)F)CC1 (stereo partly drawn) [Example 90, 3-((1R,2S)-2-Fluorocyclopropyl)-7-((1s,4s)-4-(4-fluorophenyl)-4-methoxycyclohexyloxy)-8-(trifluoromethyl)-[1,2,4]triazolo[4,3-a]pyridine]
EC50 [1]: 19 nM

COC1(c2ccc(F)cc2)CCC(Oc2ccn3c([C@@H]4C[C@H]4F)nnc3c2C(F)(F)F)CC1 (stereo partly drawn) [Example 91, 3-((1S,2R)-2-Fluorocyclopropyl)-7-((1s,4s)-4-(4-fluorophenyl)-4-methoxycyclohexyloxy)-8-(trifluoromethyl)-[1,2,4]triazolo[4,3-a]pyridine]
EC50 [1]: 83 nM

CO[C@]1(c2ccc(F)cc2)CC[C@H](Oc2ccn3c(C4CC4)nnc3c2C(F)(F)F)CC1 [Example 92, 3-Cyclopropyl-7-((1s,4s)-4-(4-fluorophenyl)-4-methoxycyclohexyloxy)-8-(trifluoromethyl)-[1,2,4]triazolo[4,3-a]pyridine]
EC50 [1]: 35 nM

CO[C@]1(c2ccc(F)cc2)CC[C@H](Oc2ccn3c(C4CC(F)(F)C4)nnc3c2C(F)(F)F)CC1 [Example 93, 3-(3,3-Difluorocyclobutyl)-7-((1s,4s)-4-(4-fluorophenyl)-4-methoxycyclohexyloxy)-8-(trifluoromethyl)-[1,2,4]triazolo[4,3-a]pyridine]
EC50 [1]: 20 nM

O[C@]1(c2ccc(F)cc2)CC[C@H](Oc2ccn3c(CC4CC4)nnc3c2C(F)(F)F)CC1 [Example 95, (1s,4s)-4-(3-(Cyclopropylmethyl)-8-(trifluoromethyl)-[1,2,4]triazolo[4,3-a]pyridin-7-yloxy)-1-(4-fluorophenyl)cyclohexanol, TFA salt]
EC50 [1]: 1 nM

Fc1ccc([C@H]2C[C@H](Oc3ccn4c(CC5CC5)nnc4c3C(F)(F)F)C2)cc1 [Example 96, 3-(Cyclopropylmethyl)-7-((1r,3r)-3-(4-fluorophenyl)cyclobutoxy)-8-(trifluoromethyl)-[1,2,4]triazolo[4,3-a]pyridine]
EC50 (EC50 (nM), activity in mGluR2 cAMP assay): 0.4 nM

CO[C@]1(c2ccc(F)cc2)CC[C@H](Oc2ccn3c(CC(F)(F)F)nnc3c2C(F)(F)F)CC1 [Example 97, 7-((1s,4s)-4-(4-Fluorophenyl)-4-methoxycyclohexyloxy)-3-(2,2,2-trifluoroethyl)-8-(trifluoromethyl)-[1,2,4]triazolo[4,3-a]pyridine]
EC50 [1]: 1 nM
